# Laboratory results published in patent US20240335439A1, “USE OF AND METHOD FOR TELAPREVIR IN PREPARATION OF DRUG FOR TREATING AN ISCHEMIA/REPERFUSION INJURY AND CYTOPROTECTIVE DRUG” (THE THIRD XIANGYA HOSPITAL OF CENTRAL SOUTH UNIVERSITY, priority 2021, published 2024).
# How the values were obtained:
# [1] = tested on: myocardial ischemia/reperfusion injury mouse models; assay: Myocardial ischemia/reperfusion injury mouse model (LAD ligation 1 h, reperfusion 24 h); type: in vivo, C57BL/6J mice; details: telaprevir 60 mg/kg after 30 minutes of ischemia, 24 h reperfusion
# Procedure: (§1) Experimental animals: 7-week-old male C57BL/6J mice. The experimental animals were raised for one week in an environment with a temperature of 25° C., a relative humidity of 60%, free drinking water, and timed and quantified feeding, and then administered according to the requirements of each experimental group.
# Method for building a myocardial ischemia/reperfusion mouse model: After an 8-week-old male C57BL/6J mouse was anesthetized by intraperitoneal injection with 0.3% pentobarbital sodium (20 mL/kg), a trachea cannula was inserted from the mouth and secured with a pressure-sensitive adhesive. […] The chest was opened, left anterior descending (LAD) branches were ligated with 8-0 sutures, myocardial infarction can be determined when the cardiac apex turned white, and the ligation was maintained for 1 hour. […] After staining, the staining solution was removed, the heart slices were washed with PBS once, immobilized with 4% paraformaldehyde for 24 hours, and then taken out, the staining situation was observed, photos were taken, and an ischemic area and an infarct area were measured by ImageJ software. […]
# Blood and myocardial tissues were collected and relevant indicators were measured: myocardial infarct area in mice was measured and serum creatine kinase activity (CK activity) was detected. […]
# [2] = tested on: Alzheimer's disease mouse models; assay: Alzheimer's disease mouse model (Aβ1-42 into hippocampus), Morris water maze experiment; type: in vivo, ICR mice; details: telaprevir 40 mg/kg intramuscular daily for 17 days, #P<0.05 vs AD+vehicle
# Procedure: as §1, with “7-week-old healthy” for “7-week-old”, “ICR mice weighing 25-30 g.” for “C57BL/6J mice.”
# Building of an Alzheimer's disease mouse model and drug treatment: Aβ1-42 was purchased from MCE Reagent Company, dissolved in DMSO, diluted with physiological saline to 2 μg/μL, and incubated in an incubator at 37° C. for 7 days to convert the Aβ1-42 into an aggregated state. […]
# A learning and memory ability and cognitive function of mice were detected by a Morris water maze experiment and a new/old object recognition experiment.
# According to the requirements of the water maze experiment, a Morris water maze was divided into four quadrants, a platform having a diameter of 12 cm and a height of 35 cm was placed in one of the quadrants, water was added to submerge the platform 1-2 cm, and the pool water was dyed black with carbon ink. After the positioning navigation experiment lasted for 5 days, the platform was removed for a spatial probe experiment, and the time for the mice to reach the original platform position (namely, incubation period) and the number of times they crossed the platform were recorded.
smiles,measurement,setting,value
CCC[C@H](NC(=O)[C@@H]1[C@H]2CCC[C@H]2CN1C(=O)[C@@H](NC(=O)[C@@H](NC(=O)c1cnccn1)C1CCCCC1)C(C)(C)C)C(=O)C(=O)NC1CC1 [telaprevir],serum creatine kinase activity,"[1]; ##P<0.01 vs I/R, FIG. 1B",significantly reduce
same,"infarct area of myocardial tissues in mice (TTC staining, AOI/AOR)","[1]; vs I/R, FIG. 1A",significantly reduce
same,"time to find the original platform position (incubation period), Morris water maze",[2]; FIG. 6A,significant decrease
same,"number of times they crossed the platform, Morris water maze",[2]; FIG. 6B,significant increase
